Assay results as given in patent US20240417428A1, “POLYPEPTIDE FOR INHIBITING TRPM8 AND USE THEREOF” (ZHEJIANG UNIVERSITY, priority 2021, published 2024).
Where a SMILES comes first, the peptide text is derived from it.

Key:
Nav1.5 = target: T1, Nav1.5 (Homo sapiens, UniProt Q14524); assay: Electrophysiological recording of Nav1.5 sodium current; assay type: cell-based
T1 construct: expressed in transfected cells; host or cells: HEK293T
Description: (§1) HEK293T cells were cultured in Dulbecco's modified Eagle culture medium under a 37° C., 5% CO2 environment, 10% fetal bovine serum, penicillin (100 U/mL), and streptomycin ([…]) was needed to add into the culture medium. Transient transfection was conducted by using Lipo 2000 (Invitrogen) transfection kit and following the instruction manual.
(§2) Electrophysiological experiment recordings were performed on the cells within 24˜48 h of transient transfections. Specifically, single channel electrophysiological recordings were performed within 8 h after transfection.
(§3) Measurement of the cell currents was respectively performed in the whole-cell recording mode, inside-out recording mode or outside-out recording mode with a HEKA EPC10 amplifier. In the whole cell electrophysiological recordings, glass microelectrodes made of borosilicate material were fire-polished to a original electrode resistance of about 3-6 MΩ. Serial resistance was compensated by 60%. The whole cell electrophysiological recordings were performed at ±80 mV. For single channel electrophysiological recordings, glass microelectrodes were fire-polished to a higher resistance of 6-8 MΩ2. Current signal was sampled at 10 kHz and filtered at 2.9 kHz. Membrane potential of the cell membrane would be clamped at +80 mV. All electrophysiological recordings were performed at room temperature (22° C.) (the maximum variation is 1° C.). […]

Nav1.7 = target: T2, Nav1.7 (Homo sapiens, UniProt Q15858); assay: Electrophysiological recording of Nav1.7 sodium current; assay type: cell-based
T2 construct: expressed in transfected cells; host or cells: HEK293T
T2 sequence (Q15858 whole entry): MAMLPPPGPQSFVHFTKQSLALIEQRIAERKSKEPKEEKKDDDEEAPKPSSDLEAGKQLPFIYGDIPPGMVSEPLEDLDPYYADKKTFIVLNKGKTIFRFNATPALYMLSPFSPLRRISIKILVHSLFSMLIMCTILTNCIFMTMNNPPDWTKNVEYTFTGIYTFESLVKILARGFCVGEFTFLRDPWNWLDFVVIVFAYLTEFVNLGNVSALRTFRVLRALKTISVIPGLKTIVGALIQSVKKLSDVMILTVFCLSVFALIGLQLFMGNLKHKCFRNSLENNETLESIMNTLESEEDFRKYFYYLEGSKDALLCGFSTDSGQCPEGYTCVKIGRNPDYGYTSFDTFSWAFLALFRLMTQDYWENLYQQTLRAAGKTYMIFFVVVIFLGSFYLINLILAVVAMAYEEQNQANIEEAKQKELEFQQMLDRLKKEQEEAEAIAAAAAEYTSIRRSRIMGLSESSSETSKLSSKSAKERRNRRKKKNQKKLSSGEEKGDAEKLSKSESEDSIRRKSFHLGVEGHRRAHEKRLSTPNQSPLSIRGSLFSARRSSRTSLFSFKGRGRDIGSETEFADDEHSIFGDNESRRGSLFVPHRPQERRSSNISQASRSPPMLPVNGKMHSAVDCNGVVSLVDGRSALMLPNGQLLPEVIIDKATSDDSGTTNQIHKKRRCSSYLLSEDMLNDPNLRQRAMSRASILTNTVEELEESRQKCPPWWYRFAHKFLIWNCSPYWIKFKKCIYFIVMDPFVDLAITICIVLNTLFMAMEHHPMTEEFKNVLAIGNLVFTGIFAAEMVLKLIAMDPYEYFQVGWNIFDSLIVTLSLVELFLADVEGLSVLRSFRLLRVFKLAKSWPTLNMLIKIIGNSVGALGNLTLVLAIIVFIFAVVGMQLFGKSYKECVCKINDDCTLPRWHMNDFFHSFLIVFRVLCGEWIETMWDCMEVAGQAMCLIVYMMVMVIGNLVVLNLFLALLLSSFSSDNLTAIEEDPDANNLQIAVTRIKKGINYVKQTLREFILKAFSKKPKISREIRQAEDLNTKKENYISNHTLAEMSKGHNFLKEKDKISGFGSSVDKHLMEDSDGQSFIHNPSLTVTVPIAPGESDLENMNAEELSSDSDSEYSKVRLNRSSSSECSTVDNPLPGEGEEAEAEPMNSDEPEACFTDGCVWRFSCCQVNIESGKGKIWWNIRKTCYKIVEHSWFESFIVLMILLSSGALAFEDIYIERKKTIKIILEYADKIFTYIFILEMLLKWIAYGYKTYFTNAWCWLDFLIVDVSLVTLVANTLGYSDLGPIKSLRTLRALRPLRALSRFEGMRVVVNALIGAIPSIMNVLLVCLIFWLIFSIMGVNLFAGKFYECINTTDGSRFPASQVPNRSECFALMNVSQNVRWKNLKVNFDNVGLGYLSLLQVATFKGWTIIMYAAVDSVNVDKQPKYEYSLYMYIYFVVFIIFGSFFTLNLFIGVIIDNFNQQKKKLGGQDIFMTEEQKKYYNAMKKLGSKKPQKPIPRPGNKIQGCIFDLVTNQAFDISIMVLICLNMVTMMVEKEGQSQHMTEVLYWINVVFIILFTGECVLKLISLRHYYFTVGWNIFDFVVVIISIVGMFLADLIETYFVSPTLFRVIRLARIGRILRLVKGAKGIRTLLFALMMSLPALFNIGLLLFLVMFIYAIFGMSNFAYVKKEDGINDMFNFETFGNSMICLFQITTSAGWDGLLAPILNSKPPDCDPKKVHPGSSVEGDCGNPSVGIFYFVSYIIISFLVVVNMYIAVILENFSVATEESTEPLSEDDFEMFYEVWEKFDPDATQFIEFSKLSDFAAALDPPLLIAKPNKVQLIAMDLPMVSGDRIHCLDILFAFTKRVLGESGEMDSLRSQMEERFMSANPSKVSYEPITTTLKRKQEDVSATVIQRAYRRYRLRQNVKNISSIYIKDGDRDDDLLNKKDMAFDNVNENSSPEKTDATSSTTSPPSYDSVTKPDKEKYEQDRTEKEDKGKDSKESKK
Description: as §1, §2, §3

[1] = system: oxaliplatin-induced cold allodynia; assay: Oxaliplatin-induced cold allodynia, acetone evaporating cold test; assay type: in vivo, mice; conditions: 3.5 μg/20 μL intraplantar, day 10 after oxaliplatin
Description: Adult male CD1 mice (6-8 weeks old) were used as experimental animals for behavioral experiments and primary cultures of DRG neurons. Mice were raised in the condition of 12 h light/12 h dark of light cycle with adequate standard chow and water. All animal protocols were approved by the Institutional Animal Care and Use Committee (IACUC) of Zhejiang University.
All of mice were habituated to the behavioral testing environment for 1-to-2 hours in 2-to-3 days before the behavioral testing. Single intraperitoneal (i.p.) injection of oxaliplatin (6 mg/kg body weight) was given to generate chemotherapy-induced neuropathic pain. Neuropathic pain behaviors were tested about 10 days after oxaliplatin injection.
Acetone-induced evaporating cold test was used to assess the oxaliplatin-induced cold allodynia. 50 μL acetone was gently splashed to the hind-paw plantar of oxaliplatin-treated mice via a syringe attached with plastic tube. The time spent in withdrawing, flinching or licking the stimulated paw was recorded and blindly counted during 5 min after acetone treatment. The cold allodynia behavior of mice was respectively measured on day 10 pre- or post-treatment with oxaliplatin, Vehicle or 3.5 μg/20 μL DeC-1.2 was intraplantarly injected to assess its analgesic effect on oxaliplatin-induced allodynia.

[2] = system: CCI-induced cold allodynia; assay: Chronic constriction injury (CCI) model of neuropathic pain: cold allodynia; assay type: in vivo; conditions: CCI rats
Description: Male Sprague-Dawley rats (purchased from Shanghai SLAC Laboratory Animal Co., Ltd. at the beginning of the experiment for 7 weeks, n=7-10/treatment) were used. CCI status was formed according to the method of Bennett G J and Xie Y K (Pain 1988, 33:87-107). Rats were anesthetized by intraperitoneal injection of sodium pentobarbital. The left common sciatic nerve was made to be exposed in the middle of the thigh in a state deprived of adherent tissue, and 4-0 silk thread (Ethicon Inc.) was utilized around it and four passes were loosely ligated at approximately 1-mm intervals. Sham surgery was performed in the same manner except for sciatic nerve ligation. After 1-2 weeks after CCI surgery, as documented in Tanimoto-Mori Setal. (BehavPharmacol., 19:85-90, 2008), The cold allodynia was evaluated by using a cooling plate (LHP-1700CP, TECA) with a temperature controller (Mode 13300-0, CAL Controls Inc.). The animals were acclimatized to a device consisting of a transparent acrylic box (10×12×12 cm) on a stainless steel plate (15×33 cm). The surface of the cooling plate was maintained at 10° C., and the temperature of the plate was continuously monitored with an accuracy of 0.1° C. To perform the experiment, rats were loaded on the cooling plate and the polypeptide DeC-1.2 was administered before and after a cutoff value of 120 seconds, and the paw withdrawal latency (PWL) was measured. […]

TRPM8 = TRPM8 (Mus musculus, UniProt Q8R4D5); assay: Whole-cell electrophysiological recording, menthol-activated TRPM8 in transfected HEK293T cells; assay type: cell-based; design: expressed in transfected cells; host or cells: HEK293T; conditions: whole-cell recording, menthol activation of TRPM8; read-out: half-inhibitory concentration (IC50) inhibiting TRPM8
Sequence of TRPM8 (Q8R4D5 whole entry): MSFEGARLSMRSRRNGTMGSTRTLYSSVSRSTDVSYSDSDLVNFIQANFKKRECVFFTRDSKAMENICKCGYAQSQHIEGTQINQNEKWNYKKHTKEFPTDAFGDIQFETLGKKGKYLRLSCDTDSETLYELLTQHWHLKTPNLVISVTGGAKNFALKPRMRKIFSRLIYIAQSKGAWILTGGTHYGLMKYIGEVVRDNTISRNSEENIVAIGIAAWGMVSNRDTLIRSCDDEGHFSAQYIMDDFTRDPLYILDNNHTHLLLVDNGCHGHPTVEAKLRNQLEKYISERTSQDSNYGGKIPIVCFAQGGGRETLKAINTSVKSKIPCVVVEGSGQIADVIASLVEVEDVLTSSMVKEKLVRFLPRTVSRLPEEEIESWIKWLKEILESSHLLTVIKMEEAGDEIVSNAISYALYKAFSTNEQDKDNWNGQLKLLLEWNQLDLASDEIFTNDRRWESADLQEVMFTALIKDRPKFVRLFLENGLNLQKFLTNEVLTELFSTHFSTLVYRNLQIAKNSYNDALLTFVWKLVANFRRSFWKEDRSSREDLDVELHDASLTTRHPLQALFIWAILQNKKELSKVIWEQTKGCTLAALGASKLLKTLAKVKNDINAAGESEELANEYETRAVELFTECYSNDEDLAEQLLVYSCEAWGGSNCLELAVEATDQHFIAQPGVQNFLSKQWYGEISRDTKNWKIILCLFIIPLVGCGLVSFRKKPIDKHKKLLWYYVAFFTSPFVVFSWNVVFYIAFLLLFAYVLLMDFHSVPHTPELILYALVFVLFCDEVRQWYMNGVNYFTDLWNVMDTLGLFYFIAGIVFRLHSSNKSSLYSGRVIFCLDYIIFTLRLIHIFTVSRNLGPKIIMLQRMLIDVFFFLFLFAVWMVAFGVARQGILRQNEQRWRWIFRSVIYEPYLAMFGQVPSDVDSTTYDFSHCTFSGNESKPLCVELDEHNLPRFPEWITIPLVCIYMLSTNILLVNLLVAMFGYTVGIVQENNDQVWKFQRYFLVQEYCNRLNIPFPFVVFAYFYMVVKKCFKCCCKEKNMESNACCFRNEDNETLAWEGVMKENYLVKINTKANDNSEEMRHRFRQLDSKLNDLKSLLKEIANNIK
Description: as §1, §2, §3

T1 sequence (Q14524 whole entry): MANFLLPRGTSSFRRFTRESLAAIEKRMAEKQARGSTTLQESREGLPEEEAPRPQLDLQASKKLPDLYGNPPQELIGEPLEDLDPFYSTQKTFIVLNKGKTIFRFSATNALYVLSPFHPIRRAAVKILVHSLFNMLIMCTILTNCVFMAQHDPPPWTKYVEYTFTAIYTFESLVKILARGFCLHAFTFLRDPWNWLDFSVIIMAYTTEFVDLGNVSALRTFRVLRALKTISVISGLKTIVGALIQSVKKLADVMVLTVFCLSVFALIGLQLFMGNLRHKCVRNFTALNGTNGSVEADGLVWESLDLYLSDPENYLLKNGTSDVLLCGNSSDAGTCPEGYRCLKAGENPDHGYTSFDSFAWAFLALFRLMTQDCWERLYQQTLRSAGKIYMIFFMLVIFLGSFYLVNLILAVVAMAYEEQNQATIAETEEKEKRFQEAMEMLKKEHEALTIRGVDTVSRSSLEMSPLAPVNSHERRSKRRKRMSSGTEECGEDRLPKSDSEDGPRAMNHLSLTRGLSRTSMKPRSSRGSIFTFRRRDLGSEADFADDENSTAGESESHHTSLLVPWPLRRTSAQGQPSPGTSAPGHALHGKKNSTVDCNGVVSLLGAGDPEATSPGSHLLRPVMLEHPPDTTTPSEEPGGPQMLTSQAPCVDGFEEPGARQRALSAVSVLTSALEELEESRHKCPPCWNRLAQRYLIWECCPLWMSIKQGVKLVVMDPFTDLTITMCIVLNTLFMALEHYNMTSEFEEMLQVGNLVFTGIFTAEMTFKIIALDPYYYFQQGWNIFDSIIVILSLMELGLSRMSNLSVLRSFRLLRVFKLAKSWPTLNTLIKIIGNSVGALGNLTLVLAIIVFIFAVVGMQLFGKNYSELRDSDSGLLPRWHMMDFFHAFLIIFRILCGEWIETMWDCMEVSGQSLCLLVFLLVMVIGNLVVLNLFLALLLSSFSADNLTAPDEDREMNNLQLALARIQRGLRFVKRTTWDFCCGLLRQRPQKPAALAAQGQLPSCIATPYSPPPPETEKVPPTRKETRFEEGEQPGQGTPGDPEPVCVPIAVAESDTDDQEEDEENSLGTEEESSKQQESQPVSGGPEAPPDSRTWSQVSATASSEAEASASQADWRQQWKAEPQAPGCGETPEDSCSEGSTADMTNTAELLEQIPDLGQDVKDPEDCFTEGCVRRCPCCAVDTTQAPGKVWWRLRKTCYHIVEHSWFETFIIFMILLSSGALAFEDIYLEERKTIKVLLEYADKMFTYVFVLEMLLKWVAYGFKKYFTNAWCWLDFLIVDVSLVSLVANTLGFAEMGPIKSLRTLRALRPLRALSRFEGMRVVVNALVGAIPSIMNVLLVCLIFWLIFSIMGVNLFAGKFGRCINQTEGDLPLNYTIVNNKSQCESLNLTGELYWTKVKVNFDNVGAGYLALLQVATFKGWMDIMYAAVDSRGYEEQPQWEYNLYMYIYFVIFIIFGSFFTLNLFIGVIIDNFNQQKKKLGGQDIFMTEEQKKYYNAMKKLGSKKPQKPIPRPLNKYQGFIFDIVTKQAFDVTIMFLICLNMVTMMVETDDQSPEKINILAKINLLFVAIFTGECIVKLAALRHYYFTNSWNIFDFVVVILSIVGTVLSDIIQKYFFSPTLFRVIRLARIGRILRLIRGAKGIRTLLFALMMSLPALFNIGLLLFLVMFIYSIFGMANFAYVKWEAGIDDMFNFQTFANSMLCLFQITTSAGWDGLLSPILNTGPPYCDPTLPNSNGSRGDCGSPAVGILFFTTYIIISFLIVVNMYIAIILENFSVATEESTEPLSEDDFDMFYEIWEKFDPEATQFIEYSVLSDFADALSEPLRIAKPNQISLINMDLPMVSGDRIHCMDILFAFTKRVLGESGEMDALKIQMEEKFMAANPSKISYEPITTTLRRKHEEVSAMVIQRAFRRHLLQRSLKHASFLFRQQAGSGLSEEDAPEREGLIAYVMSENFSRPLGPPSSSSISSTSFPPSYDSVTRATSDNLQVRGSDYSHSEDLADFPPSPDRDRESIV

## C[C@@H]1NC(=O)[C@H](CCCNC(=N)N)NC(=O)[C@H](CC(=O)O)NC(=O)[C@H](CCCNC(=N)N)NC(=O)[C@H](CCCNC(=N)N)NC(=O)[C@@H](N)CSSC[C@@H](C(=O)O)NC(=O)[C@H](CCCNC(=N)N)NC(=O)[C@H](CCC(N)=O)NC(=O)[C@H](CCCNC(=N)N)NC(=O)[C@H](Cc2ccc(O)cc2)NC(=O)[C@H](Cc2c[nH]cn2)NC(=O)[C@H](CCCNC(=N)N)NC1=O [DeC-1.2, CRRDRARHYRQRC] (HELM PEPTIDE1{C.R.R.D.R.A.R.H.Y.R.Q.R.C}$PEPTIDE1,PEPTIDE1,1:R3-13:R3$$$V2.0; N-terminus and C-terminus assumed)
Nav1.5
  IC50: > 100 µM
Nav1.5; Nav1.5
  inhibition of Nav channels: none of the TRP channels and Nav channels were inhibited
Nav1.7
  IC50: > 100 µM
Nav1.7; Nav1.7
  inhibition of Nav channels: none of the TRP channels and Nav channels were inhibited
[1]
  cold pain behavior induced by acetone evaporation (acetone score): significantly improved the cold pain behavior
[2]
  activity against cold allodynia (paw withdrawal latency, 10° C. cooling plate): exhibited strong activity
TRPM8
  IC50: 0.0045 ± 0.003 µM
